This note sets out measurements from patent US7901879B2, “Lactoferrin in the treatment of malignant neoplasms and other hyperproliferative diseases” (Agennix Incorporated, priority 2002, dated 2011).

The test has as its system murine squamous carcinoma cell line (SCCVII). Nature of the test: SCCVII floor-of-mouth tumor growth, oral rhLF and/or cisplatin (Example 6). Format: in vivo, immunocompetent C3H mice. Here is the method: A murine squamous carcinoma cell line (SCCVII) was injected into the floor of the mouth through the neck skin of immunocompetent C3H mice (Day 0). […] Tumors were measured in three dimensions with calipers.
Tumor-bearing mice were randomized into a control group and seven groups receiving rhLF and/or cisplatin. RhLF (4 mg; 200 mg/Kg) was administered once daily by oral gavage for 8 days on days 5 through 12. Cisplatin was administered as a single dose of 5 mg/Kg given intraperitoneally either at the start of rhLF (day 5), in the middle (day 8) or at the end (day 12) of rhLF therapy. Animals were sacrificed on day 12 post-implantation and the residual tumor masses were measured and processed for later additional analyses.

Take `N.N.[Cl][Pt][Cl]` [CP, Cisplatin]: the “TGI (%) Relative to Placebo” value is, setting by setting: (cisplatin 5 mg/kg i.p. on day 5, with rhLF 200 mg/kg oral days 5-12 where combined) 68%; (cisplatin 5 mg/kg i.p. on day 8, with rhLF 200 mg/kg oral days 5-12 where combined) 6%; (cisplatin 5 mg/kg i.p. on day 12, with rhLF 200 mg/kg oral days 5-12 where combined) 42%; (pooled cisplatin day 5, 8 and 12 groups) 38%.
